Measured values reported in patent publication EP0671947B1, “COMPOSITIONS FOR ELICITING CYTOTOXIC T-[…] AGAINST VIRUSES” (BOARD OF REGENTS THE UNIVERSITY OF TEXAS SYSTEM, priority 1991, dated 1993).
Values joined by “and” are separate entries in the source; they are usually repeats but may differ in a detail not shown here. Equal entries are not always repeated. “Also recorded” adds a separate entry of the source. Where two headings read alike, the source gives them in different places. Ends that are not written are not given here.

Experiments:
[1] = system: BALB/c mice; assay: ELISA for anti-peptide antibody response after immunization; settings: high molecular weight forms
[2] = type: in vivo, Balb/c mice
[3] = system: HIV-1 infected CCRF-CEM and uninfected Molt-4 cells; settings: cited from earlier work
[4] = system: PLN cells; assay: In vitro proliferation of PLN cells (3H-TdR incorporation) after footpad immunization; type: in vivo, B6C3 F1 mice; settings: disulfide (di-Cys) polymeric form; summary of mouse studies
Experimental: The high molecular weight, multimeric di-Cys peptide polymeric forms of the peptides described in EXAMPLE 1 were assayed for their elicitation of a T cell proliferative response as in Millich et al. (1985).
FIGURES 2-5 illustrate the peptide-specific ^3H-TdR incorporation for T cell responses (delta cpm) in mice with differing major histocompatibility (MHC) haplotypes, B6C3 F1 (C57B1/6xC^3H/HcJ) mice (FIGURES 2 and 4) and (A.SWxBALB/c) F1 mice (FIGURES 3 and 5), for all of the synthetic peptides. The ^3H-TdR incorporation values represent the difference between the radioactivity values obtained in wells containing antigen and in control wells without added antigen. The non-specific proliferation of PLN cells was determined by including an unrelated peptide in the assays, shown as a horizontal bar for each peptide.

[5] = system: PBMC; assay: PBMC proliferation after immunization with a mixture of eight synthetic peptides; type: in vivo, rhesus monkeys; design: key to T-cell Proliferation Responses, Rhesus Monkey #7 / T-cell Proliferation Responses, Rhesus Monkey #23 / T-cell Proliferation Responses, Rhesus Monkey #283C: (-), no detectable response; (1+), poor response; (2+), good response; (3+), better response; (4+, 6+), best response; (4+, 6+), best response; settings: for T-cell Proliferation Responses, Rhesus Monkey #7 / T-cell Proliferation Responses, Rhesus Monkey #23 / T-cell Proliferation Responses, Rhesus Monkey #283C: PBMC response to the individual antigen after immunization with mixture of eight peptides; for proliferative responses of PBMCs (in words): three rhesus monkeys immunized with mixture of eight peptides
Experimental: In the present studies, three rhesus monkeys (#7, #23 and #283C) were immunized subcutaneously with 1 ml (0.1 ml/site) of a mixture of eight synthetic peptides (300 µg of each peptide in sterile water) emulsified in complete Freund's adjuvant at 1:1 ratio. […] At 3 and 7 weeks after the primary immunization, two booster injections of the peptide mixture (150 µg of each peptide in sterile water) emulsified in incomplete Freund's adjuvant were given to each monkey. Monkey #7 was terminated after 34 weeks, for health reasons unrelated to the study, while the remaining two monkeys (#283C and #23) received one additional booster injection at 25 weeks.
At two week intervals following the first immunization of each animal, 15 ml of whole heparinized blood was collected by venous puncture. The peripheral blood mononuclear cells (PBMC) were separated by standard ficoll-hypaque centrifugation and employed in proliferation assays. The PBMCs were monitored every two weeks for a period of 32 weeks for proliferative responses against individual peptides and recombinant gp160.

[6] = system: HIV-1 IIIB; assay: Effect of V3 loop peptides on HIV-1 IIIB infection of human cells (RT activity); type: cell-based; settings: for RT ACTIVITY (CPM): No Peptide 7528, Uninfected cells 558
Text: As detailed in TABLE 11A, these peptides include D23, D24, D25, D26, D30, D35, D38, D39, D40 and D44, which reflect a variety of strains such as mn, rf, wmj-3, sc, z6, eli, mn (y-l) and mn (y-p). However, it is important to note that this assay was confined specifically to inhibiting the infection of the heterologous strain HIV-1 IIIB. […]

[7] = system: P815
[8] = system: envelope protein gp160 of HIV-1 IIIB, mn or rf strains; type: cell-based
[9] = system: HIV-1; type: cell-based, HIV-1 IIIB
[10] = system: HIV-1; type: cell-based; settings: seven days after infection
[11] = system: 3A9; type: in vivo, Balb/c mice
[12] = system: HIV-1; type: cell-based; settings: various concentrations, seven days after infection
[13] = system: HIV-1; type: cell-based; settings: various concentrations, seven days after infection; remark: listed apart in the source
[14] = 1 µg/ml, RT activity in culture supernatant after 9 days, IIIB strain

CRIKQIINMWQGVGKAMYA [Peptide 65]
anti-peptide antibody titers (in words) [1]: high antibody titers

CRIKQIINMWQGVGKAMYA [Peptide 122]
CTL-inducing activity ([2]; helper T-cell peptide injected alone): lacked CTL-inducing activity

CTRPNNNTRKSIRIQRGPGRAFVTIGKIGNMRQAHC [reference compound]
inhibition of syncytium formation ([3]; 100 µM (approximately 300 µg/ml)): 30-60%

FEPIPIHYCAFPGF [Peptide 114]
anti-peptide antibody titers (in words) [1]: high antibody titers

FLGFLGAAGSTMGAASLTLTVQANQ [Peptide 63]
T cell response directed against both the corresponding peptide and native gp160 [4]: strong T cell response
T-cell Proliferation Responses, Rhesus Monkey #7 [5]: 2+
T-cell Proliferation Responses, Rhesus Monkey #23 [5]: 4+
T-cell Proliferation Responses, Rhesus Monkey #283C [5]: 3+
proliferative responses of PBMCs (in words) [5]: good proliferative responses
anti-peptide antibody titers (in words) [1]: very low to negligible; also recorded: do not stimulate anti-peptide antibody production

GIAIGPGRTLYAREK [Peptide D27]
RT ACTIVITY (CPM) [6]: 7657 CPM

GIHFGPGQALYTTGI [Peptide D33]
RT ACTIVITY (CPM) [6]: 8959 CPM

GTGPCTNVSTVQC [Peptide 116]
T-cell Proliferation Responses, Rhesus Monkey #7 [5]: 1+
T-cell Proliferation Responses, Rhesus Monkey #23 [5]: 3+
T-cell Proliferation Responses, Rhesus Monkey #283C [5]: 2+
proliferative responses of PBMCs (in words) [5]: weak responses
anti-peptide antibody titers (in words) [1]: very low to negligible

GVPVWKEATTLFC [Peptide 105]
proliferative responses of PBMCs (in words) [5]: A significant response was not detected

HGEFAPGNYPALWSYA [Peptide B105, reference compound]
in vivo CTL response ([7]; […], same immunization protocol): successfully generated

HIGPGRAFYTTKN [Peptide H13N]
syncytia [8]: no syncytia were observed
inhibition of HIV-1 infection of primary human T cells [9, 14]: > 60%

KKFNGTGPCTN [Peptide 115]
anti-peptide antibody titers (in words) [1]: high antibody titers

LWDQSLKPCVKLT [Peptide 111]
T-cell Proliferation Responses, Rhesus Monkey #7 [5]: 3+
T-cell Proliferation Responses, Rhesus Monkey #23 [5]: 2+
T-cell Proliferation Responses, Rhesus Monkey #283C [5]: 3+
proliferative responses of PBMCs (in words) [5]: good proliferative responses
anti-peptide antibody titers (in words) [1]: very low to negligible

NNTRKSIRIQRGPGRAFVTIGKIG [Peptide N24G]
inhibition of HIV-1 infection of primary human T cells [9, 14]: 92%
concentration required for inhibition of syncytium formation ([3]; to achieve the same level of inhibition (30-60%)): 300 µM

NNTRKSITKGPGRVIYATGQIIGD [Peptide D26]
RT ACTIVITY (CPM) [6]: 2093 CPM

RIHIGPGARFLTTKN [Peptide D39]
RT ACTIVITY (CPM) [6]: 1978 CPM

RIHIGPGRAFFTTKN [Peptide D40]
RT ACTIVITY (CPM) [6]: 2805 CPM

RIHIGPGRAFYTTKN [Peptide D24]
RT ACTIVITY (CPM) [6]: 5000 CPM

RIQRGPGRAFVTIGK [Peptide R15K]
HIV-1 infection of MT-4 cells, reverse transcriptase activity in culture medium [10]: inhibits HIV-1 infection
% Specific Lysis ([11]; mouse, in vivo): 7.0% and 0.6% and 0% and 10.0% and 8.0%
cytotoxicity after pre-treatment of effector cells with anti-CD4 MAbs plus complement, or complement alone ([7]; monomeric peptide): no significant effect
Lysis of MHC-matched target cells without peptide pre-treatment (P815) ([7]; mouse, in vivo): not observed
cytotoxicity after treatment of CTL effectors with anti-CD8 MAbs and rabbit complement ([7]; mouse, in vivo): abolished the cytotoxicity
lysis of P815 cells infected with recombinant vaccinia virus expressing HIV gp160 (VPE16) ([7]; mouse, in vivo): specifically lysed
mice with CTLs specifically lysing P815 pre-incubated with the peptide ([7]; mouse, in vivo): 8 of 12 and 13 of 13 and 6 of 8
time to CTL induction in the popliteal lymph node ([2]; mouse, in vivo): ≤ 7 days
HIV-1 infection of CEM cells, reverse transcriptase activity in culture supernatant [12]: inhibits HIV-1 infection
inhibitory activity retained, of control untreated peptide (bovine, fetal calf serum, 24 h): 50%
time for which full strength inhibitory activity was retained (incubation in fetal calf serum at 37°C, tested at 1 µg/ml on MT-4 cells): up to 4 hours
% RT INHIBITION [6]: 73.2%
RT ACTIVITY (CPM) [6]: 2021 CPM
HIV-1 infection of H9 cells, reverse transcriptase activity in culture supernatant [13]: inhibits HIV-1 infection
proliferative responses of PBMCs (in words) [5]: A significant response was not detected
syncytia [8]: no syncytia were observed
inhibition of HIV-1 infection of primary human T cells [9]: 92%

RTPTGLGQSLYTTRS [Peptide D38]
RT ACTIVITY (CPM) [6]: 5823 CPM

RVTLGPGRVWYTTGE [Peptide D29]
RT ACTIVITY (CPM) [6]: 13009 CPM

SIHIGPGRAFYATGD [Peptide D30]
RT ACTIVITY (CPM) [6]: 3443 CPM

SIRIGPGKVFTAKGG [Peptide D31]
RT ACTIVITY (CPM) [6]: 11877 CPM

SISIGPGRAFFATTD [Peptide D34]
RT ACTIVITY (CPM) [6]: 11142 CPM

SITKGPGRVIYATGQ [Peptide D28]
RT ACTIVITY (CPM) [6]: 7634 CPM

SIYIGPGRAFHTTGR [Peptide D32]
RT ACTIVITY (CPM) [6]: 8002 CPM

SLKPCVKLTPLC [Peptide 112]
anti-peptide antibody titers (in words) [1]: high antibody titers

SLSIGPGRAPRTREI [Peptide D25]
RT ACTIVITY (CPM) [6]: 4342 CPM

STPIGLGQALYTTRG [Peptide D35]
RT ACTIVITY (CPM) [6]: 5242 CPM

STPIGLGQALYTTRI [Peptide D37]
RT ACTIVITY (CPM) [6]: 7027 CPM

SVITQACSKVSFE [Peptide 113]
T cell response directed against both the corresponding peptide and native gp160 [4]: strong T cell response
T-cell Proliferation Responses, Rhesus Monkey #7 [5]: 1+
T-cell Proliferation Responses, Rhesus Monkey #23 [5]: 2+
T-cell Proliferation Responses, Rhesus Monkey #283C [5]: 2+
proliferative responses of PBMCs (in words) [5]: weak responses
anti-peptide antibody titers (in words) [1]: very low to negligible; also recorded: do not stimulate anti-peptide antibody production

TKGPGRVIYATGQ [Peptide T13Q]
syncytia [8]: no syncytia were observed
inhibition of HIV-1 infection of primary human T cells [9, 14]: > 60%

TYQRTRALVTG [Peptide B106, reference compound]
% Specific Lysis ([11]; effector cells: No Treatment, target 3A9 (H-2^k), E:T 80:1): 0%
% Specific Lysis ([11]; effector cells: No Treatment, target 3A9 (H-2^k), E:T 160:1): 0%

VQCTHGIRPVVSTQ [Peptide 117]
anti-peptide antibody titers (in words) [1]: high antibody titers

VYYGVPVWKEA [Peptide 104]
T cell response directed against both the corresponding peptide and native gp160 [4]: strong T cell response
T-cell Proliferation Responses, Rhesus Monkey #7 [5]: 4+
T-cell Proliferation Responses, Rhesus Monkey #23 [5]: 2+
T-cell Proliferation Responses, Rhesus Monkey #283C [5]: 4+
proliferative responses of PBMCs (in words) [5]: good proliferative responses
anti-peptide antibody titers (in words) [1]: very low to negligible; also recorded: do not stimulate anti-peptide antibody production

YLRDQQLLGIWGC [Peptide 61]
T cell response directed against both the corresponding peptide and native gp160 [4]: strong T cell response
T-cell Proliferation Responses, Rhesus Monkey #23 [5]: 3+
T-cell Proliferation Responses, Rhesus Monkey #283C [5]: 2+
proliferative responses of PBMCs (in words) [5]: Two of the three rhesus monkey-derived PBMC preparations also showed good proliferative responses
anti-peptide antibody titers (in words) [1]: very low to negligible; also recorded: do not stimulate anti-peptide antibody production

YNKRKRIHIGPGRAFYTTKNNIGC [Peptide D23]
RT ACTIVITY (CPM) [6]: 94 CPM
